Reference: patent US6172185A, “Antimicrobial cationic peptide derivatives of bactenecin” (priority 1998, dated 2001)
Where a SMILES comes first, the peptide text is derived from it. Where no end group is shown, it is not given here.

Assays:
E. coli DC2 = format: cell-based, Escherichia coli; settings: E. coli DC2, 0.1M KCl
Procedure: The minimal inhibitory concentration (MIC) of peptides was determined by a modified two-fold microtitre broth dilution method modified from that of Steinberg et al (Steinberg, Antimicrob. Agents Chemother. 41:1738, 1997). Using the classical method (Amsterdam, Antibiotics in Laboratory Medicine (Lorian, V., ed) pp. 72-78, 1991), higher concentrations of peptides tend to precipitate in the LB broth, thus the concentrations of peptides in the sequential wells are not accurate. Also the peptides stick to the most readily available (tissue-culture treated polystyrene) 96-well microtitre plates. Therefore the 2× series of dilutions was performed in Eppendoff tubes (polypropylene) before mixing with LB broth. Serial of two fold dilutions of peptides ranging from 640 μg/ml to 1.25 μg/ml were made in 0.2% BSA, 0.01% acetic acid buffer in the Eppendoff tubes. Ten μl of each concentration was added to each corresponding well of a 96-well microtiter plate (polypropylene cluster; Costar Corporation, Cambridge, Mass.). Bacteria were grown overnight and diluted 10-5 into fresh LB broth or Todd Hewitt broth for Streptococcus. LB medium contained 10 g/1l tryptone and 5 g/yeast extract, with no salt. Todd Hewitt contained 500 g/l beef heart infusion, 20 g/l bacto neopeptone, 2 g/l bacto dextrose, 2 g/l sodium chloride, 0.4 g/l disodium phosphate, 2.5 g/l sodium carbonate. One hundred […] containing about 10^4-10^5 CFU/ml of tested bacteria was added to each well. […]
It has been proposed that the antibacterial target of cationic peptides be at the cytoplasmic membrane. […] Once inside the cells, diS-C3-(5) becomes concentrated and self-quenches its own fluorescence. If peptides form channels or otherwise disrupt the membrane, the membrane potential will be dissipated, and the DiS-C3-(5) will be released into the medium causing the fluorescence to increase, as can be detected by fluorescent spectrometry. […] Therefore the MICs of bactenecin, reduced bactenecin and bac2S in the presence of 0.1M KCl were determined and shown to be 8-16 μg/ml (i.e. 4 to 8 fold higher than in low salt). […]

[1] = tested on: rat embryonic neurons, fetal rat astrocytes and human glioblastoma cells; settings: cited from earlier work
E. coli UB1005 = experiment: Outer membrane permeabilization, NPN uptake assay; format: cell-based, Escherichia coli; settings: FIG. 3
Procedure: Mid-log phase E. coli cells were collected and incubated with NPN in the presence of various concentrations of bactenecin (oxidized), bac2S, bactenecin (reduced). NPN was taken up into cells when the outer membrane was disrupted by the peptides. The uptake of NPN was measured by the increase of fluorescence. Polymyxin B: -.quadrature.-; Bactenecin: -+-; Bac2S: -o-; Bactenecin (Reduced): -.gradient.-
The ability of peptides to permeabilize the outer membrane was determined by the NPN assay of Loh et al. (Loh et al., Antimicrob. Agents Chemother. 19:777, 1984). Cytoplasmic membrane permeabilization was determined by using the membrane potential sensitive cyanine dye DiS-C3-(5) (Sims et al., Biochemistry 13:3315, 1974). […] The cell suspension was incubated with […] DiS-C3-(5) until DiS-C3-(5) uptake was maximal (as indicated by a stable reduction in fluorescence due to fluorescence quenching as the dye became concentrated in the cell by the membrane potential), and 100 mM KCl was added to equilibrate the cytoplasmic and external K+ concentration. […] The fluorescence reading was monitored by using a Perkin-Elmer model 650-10 S fluorescence spectrophotometer (Perkin-Elmer Corp. Norwalk, Conn.), with an excitation wavelength of 622 nm and an emission wavelength of 670 nm. […]

Staph. aureus = experiment: MIC, modified two-fold microtitre broth dilution; format: cell-based, Staphylococcus aureus
Excerpt: (§1) Bacterial strains for antimicrobial activity testing included Escherichia coli UB1005 and its antibiotic supersusceptible derivative DC2 (Richmond et al., Antimicrob. Agents Chemother. 10:215, 1976), Pseudomonas aeruginosa K799 and its antibiotic-supersusceptible derivative Z61 (Angus et al., Antimicrob. Agents Chemother. 21:299, 1982), Salmonella typhimurium 14028s and its defensin-supersusceptible derivative MS7953s (Fields et al., Science, 243:1059, 1989), Staphylococcus aureus ATCC25923 and a clinical isolate Staphylococcus aureus SAP1007. Other Gram-positive bacterial strains include Staphylococcus epidermidis (clinical isolate) and Enterococcus faecalis ATCC29212, Listeria monocytogenes, Corynebacterium xerosis, Streptococcus pneumoniae ATTC49619, Streptococcus pyogenes ATTC19615, Streptococcus mitis.
(§2) The minimal inhibitory concentration (MIC) of peptides was determined by a modified two-fold microtitre broth dilution method modified from that of Steinberg et al (Steinberg, Antimicrob. Agents Chemother. 41:1738, 1997). Using the classical method (Amsterdam, Antibiotics in Laboratory Medicine (Lorian, V., ed) pp. 72-78, 1991), higher concentrations of peptides tend to precipitate in the LB broth, thus the concentrations of peptides in the sequential wells are not accurate. Also the peptides stick to the most readily available (tissue-culture treated polystyrene) 96-well microtitre plates. Therefore the 2× series of dilutions was performed in Eppendoff tubes (polypropylene) before mixing with LB broth. Serial of two fold dilutions of peptides ranging from 640 μg/ml to 1.25 μg/ml were made in 0.2% BSA, 0.01% acetic acid buffer in the Eppendoff tubes. Ten μl of each concentration was added to each corresponding well of a 96-well microtiter plate (polypropylene cluster; Costar Corporation, Cambridge, Mass.). Bacteria were grown overnight and diluted 10-5 into fresh LB broth or Todd Hewitt broth for Streptococcus. LB medium contained 10 g/1l tryptone and 5 g/yeast extract, with no salt. Todd Hewitt contained 500 g/l beef heart infusion, 20 g/l bacto neopeptone, 2 g/l bacto dextrose, 2 g/l sodium chloride, 0.4 g/l disodium phosphate, 2.5 g/l sodium carbonate. One hundred […] containing about 10^4-10^5 CFU/ml of tested bacteria was added to each well. The plate was incubated at 37° C. overnight. The MIC was taken as the concentration at which greater than 90% of growth inhibition was observed.

P.aeruginosa = experiment: MIC, modified two-fold microtitre broth dilution; format: cell-based, Pseudomonas aeruginosa
Excerpt: as §1, §2

C. xerosis = experiment: MIC, modified two-fold microtitre broth dilution; format: cell-based, Corynebacterium xerosis
Excerpt: as §1, §2

S.typhimurium = experiment: MIC, modified two-fold microtitre broth dilution; format: cell-based, Salmonella typhimurium
Excerpt: as §1, §2

Strep. mitis = experiment: MIC, modified two-fold microtitre broth dilution; format: cell-based, Streptococcus mitis; settings: for MIC Strep. mitis: Table IID, linear (Group 2): reduced forms of the peptides, Bac (Oxidized) as comparator
Excerpt: as §1, §2

E.facaelis = experiment: MIC, modified two-fold microtitre broth dilution; format: cell-based, Enterococcus faecalis
Excerpt: as §1, §2

E.coli UB1005 = experiment: MIC, modified two-fold microtitre broth dilution; format: cell-based, Escherichia coli
Excerpt: as §1, §2

Strep. pyogenes = experiment: MIC, modified two-fold microtitre broth dilution; format: cell-based, Streptococcus pyogenes; settings: for MIC Strep. pyogeness: Table IID, linear (Group 2): reduced forms of the peptides, Bac (Oxidized) as comparator
Excerpt: as §1, §2

Staph. epidermidis = experiment: MIC, modified two-fold microtitre broth dilution; format: cell-based, Staphylococcus epidermidis
Excerpt: as §1, §2

Listeria monocytogenes = experiment: MIC, modified two-fold microtitre broth dilution; format: cell-based
Excerpt: as §1, §2

Strep. pneumoniae = experiment: MIC, modified two-fold microtitre broth dilution; format: cell-based, Streptococcus pneumoniae; settings: for MIC Strep. pneumonia: Table IID, linear (Group 2): reduced forms of the peptides, Bac (Oxidized) as comparator
Excerpt: as §1, §2

[2] = Table IID, linear (Group 2): reduced forms of the peptides, Bac (Oxidized) as comparator
[3] = Table IVB, non-linear hydrophobicity modification derivatives
[4] = Table IIC, linear (Group 2): reduced forms of the peptides, Bac (Oxidized) as comparator
[5] = Table IVA, non-linear hydrophobicity modification derivatives
[6] = Table IIIB, non-linear positive-charge modification derivatives
[7] = table IIA, non-linear positive-charge modification derivatives

Molecule	MIC in the presence of 0.1M KCl (E. coli DC2) [µg/mL]	Minimal Agglutinating Concentration, Oxidized Form (Human Red Blood Cells) [µg/mL]	Minimal Agglutinating Concentration, Reduced Form (Human Red Blood Cells) [µg/mL]	MIC Staph. aureus (Staph. aureus; [2]) [µg/mL]	MIC P. aeruginosa (P.aeruginosa; [4]) [µg/mL]	MIC C. xerosis (C. xerosis; [2]) [µg/mL]	MIC S. typhimurium (S.typhimurium; [4]) [µg/mL]	MIC Strep. mitis (Strep. mitis) [µg/mL]	MIC E.facaelis (E.facaelis; [2]) [µg/mL]	MIC E.coli UB1005 (E.coli UB1005; [4]) [µg/mL]	MIC Strep. pyogeness (Strep. pyogenes) [µg/mL]	MIC Staph. epidermidis (Staph. epidermidis; [2]) [µg/mL]	MIC Listeria (Listeria monocytogenes; [2]) [µg/mL]	MIC Strep. pneumonia (Strep. pneumoniae) [µg/mL]	further results
CC[C@H](C)[C@H](NC(=O)[C@H](CCCNC(=N)N)NC(=O)[C@H](CS)NC(=O)[C@H](CC(C)C)NC(=O)[C@@H](N)CCCNC(=N)N)C(=O)N[C@H](C(=O)N[C@H](C(=O)N[C@H](C(=O)N[C@@H](CCCNC(=N)N)C(=O)N[C@H](C(=O)N[C@@H](CS)C(=O)N[C@@H](CCCNC(=N)N)C(=O)O)C(C)C)[C@@H](C)CC)C(C)C)C(C)C [Bac (Reduced), RLCRIVVIRVCR] (H-RLCRIVVIRVCR-OH)	8 to 16	16													concentration causing agglutination of human red blood cells (Human Red Blood Cells): 16000 to 32000 ng/mL
CC[C@H](C)[C@@H]1NC(=O)[C@H](CCCNC(=N)N)NC(=O)[C@@H](NC(=O)[C@H](CC(C)C)NC(=O)[C@@H](N)CCCNC(=N)N)CSSC[C@@H](C(=O)N[C@@H](CCCNC(=N)N)C(=O)O)NC(=O)[C@H](C(C)C)NC(=O)[C@H](CCCNC(=N)N)NC(=O)[C@H]([C@@H](C)CC)NC(=O)[C@H](C(C)C)NC(=O)[C@H](C(C)C)NC1=O [Bactenecin, RLCRIVVIRVCR] (HELM PEPTIDE1{R.L.C.R.I.V.V.I.R.V.C.R}$PEPTIDE1,PEPTIDE1,3:R3-11:R3$$$V2.0)	8 to 16	64													cytotoxicity [1]: strongly cytotoxic
Polymyxin B															concentration permeabilizing the outer membrane to 50% of maximal increase in fluorescence (NPN) (E. coli UB1005): 0.4 mg/mL
RLCRIVWVIRVCR [Bac W, tested oxidized and reduced]		32	4	> 64	> 64	1	64	1	32	> 64	16	32	2	32	MIC Staph. aureus (Staph. aureus; [3]): 4 µg/mL; MIC P. aeruginosa (P.aeruginosa; [5]): 4 µg/mL; MIC C. xerosis (C. xerosis; [3]): 1 µg/mL; MIC S. typhimurium (S.typhimurium; [5]): 4 µg/mL; MIC S. mitis (Strep. mitis; [3]): 1 µg/mL; MIC E.facaelis (E.facaelis; [3]): 8 µg/mL; MIC E.coli UB1005 (E.coli UB1005; [5]): 8 µg/mL; MIC Strep. pyogenes (Strep. pyogenes; [3]): 2 µg/mL; MIC Staph. epidermidis (Staph. epidermidis; [3]): 2 µg/mL; MIC Listeria (Listeria monocytogenes; [3]): 0.5 µg/mL; MIC S. pneumoniae (Strep. pneumoniae; [3]): 16 µg/mL
RRRLCPIVIRVCRR [Bac 3R, P, (V), tested oxidized and reduced]		> 64	32	> 64	32	0.5	32	1	32	4	8	8	1	> 64	MIC Staph. aureus (Staph. aureus; [6]): > 64 µg/mL; MIC P. aeruginosa (P.aeruginosa; [7]): 8 µg/mL; MIC C. xerosis (C. xerosis; [6]): 4 µg/mL; MIC S. typhimurium (S.typhimurium; [7]): 8 µg/mL; MIC S. mitis (Strep. mitis; [6]): 1 µg/mL; MIC E.facaelis (E.facaelis; [6]): > 64 µg/mL; MIC E.coli UB1005 (E.coli UB1005; [7]): 2 µg/mL; MIC Strep. pyogenes (Strep. pyogenes; [6]): 4 µg/mL; MIC Staph. epidermidis (Staph. epidermidis; [6]): 16 µg/mL; MIC Listeria (Listeria monocytogenes; [6]): 1 µg/mL; MIC S. pneumonia (Strep. pneumoniae; [6]): > 64 µg/mL
RLSRIVVIRVSR [Bac 2S, RLSRIVVIRVSR]	8 to 16	> 64													
